In ChEMBL document CHEMBL5500358, “Identification of CH2-linked quinolone-aminopyrimidine hybrids as potent anti-MRSA agents: Low resistance potential and lack of cross-resistance with fluoroquinolone antibiotics” (Eur J Med Chem, 2024):
Values after ≈ are worked out from the molar mass of the structure shown.

What was measured:
[1] = Metabolic stability in human liver microsomes assessed as drug elimination rate constant at 1 uM by LC-MS/MS analysis; type: ADME, Microsome
[2] = Metabolic stability in rat liver microsomes assessed as elimination half life at 1 uM by LC-MS/MS analysis; type: ADME, Microsome; details: read-out: beta t1/2
[3] = Metabolic stability in human liver microsomes assessed as elimination half life at 1 uM by LC-MS/MS analysis; type: ADME, Microsome; details: read-out: beta t1/2
[4] = Metabolic stability in rat liver microsomes assessed as drug elimination rate constant at 1 uM by LC-MS/MS analysis; type: ADME, Microsome
[5] = test system: HEK293; assay: Cytotoxicity against HEK293 cells assessed as reduction in cell viability at 100 uM incubated for 24 hrs by CCK-8 assay; type: toxicity, cell-based; details: human, hek293, 24 h
[6] = Metabolic stability in human liver microsomes assessed as microsomal intrinsic clearance at 1 uM by LC-MS/MS analysis; type: ADME, Microsome; details: read-out: CLH
[7] = Metabolic stability in rat liver microsomes assessed as microsomal intrinsic clearance at 1 uM by LC-MS/MS analysis; type: ADME, Microsome; details: read-out: CLH
[8] = test system: Escherichia coli; assay: Antibacterial activity against Escherichia coli ATCC 25922 incubated for 16 to 18 hrs by absorbance based analysis; type: functional; details: time 16-18 hrs
[9] = Metabolic stability in rat liver microsomes assessed as liver intrinsic clearance at 1 uM by LC-MS/MS analysis; type: ADME, Microsome; details: read-out: CLH
[10] = Metabolic stability in human liver microsomes assessed as liver intrinsic clearance at 1 uM by LC-MS/MS analysis; type: ADME, Microsome; details: read-out: CLH
[11] = Metabolic stability in human liver microsomes assessed as compound remaining at 1 uM measured after 60 mins by LC-MS/MS analysis; type: ADME, Microsome; details: read-out: Stability
[12] = Metabolic stability in rat liver microsomes assessed as compound remaining at 1 uM measured after 60 mins by LC-MS/MS analysis; type: ADME, Microsome; details: read-out: Stability
[13] = test system: A549; assay: Cytotoxicity against human A549 cells assessed as reduction in cell viability at 100 uM incubated for 24 hrs by CCK-8 assay; type: toxicity, cell-based; details: a549, 24 h
[14] = test system: Staphylococcus aureus; assay: Antibacterial activity against fluoroquinolone/methicillin resistant Staphylococcus aureus Mu50 incubated for 16 to 18 hrs by absorbance based analysis; type: functional; details: time 16-18 hrs
[15] = test system: Staphylococcus aureus; assay: Antibacterial activity against fluoroquinolone-sensitive methicillin resistant Staphylococcus aureus ATCC 33591 incubated for 16 to 18 hrs by absorbance based analysis; type: functional; details: time 16-18 hrs
[16] = test system: Staphylococcus aureus; assay: Antibacterial activity against fluoroquinolone-sensitive methicillin resistant Staphylococcus aureus USA500 incubated for 16 to 18 hrs by absorbance based analysis; type: functional; details: time 16-18 hrs
[17] = Acute toxicity in ICR mouse assessed as kidney damage at 400 to 2000 mg/kg, po administered as single dose via oral gavage and measured on day 9; type: organism-based; details: in vivo, 216 h, dose 400-2000 mg/kg, time 9 day
[18] = Half life in male Sprague-Dawley rat at 10 mg/kg, iv administered as single dose and measured upto 24 hrs by LC-MS/MS analysis; type: ADME, organism-based; details: in vivo
[19] = Clearance in male Sprague-Dawley rat at 10 mg/kg, iv administered as single dose and measured upto 24 hrs by LC-MS/MS analysis; type: ADME, organism-based; details: in vivo
[20] = Acute toxicity in ICR mouse assessed as abnormal behaviors at 400 to 2000 mg/kg, po administered as single dose via oral gavage and measured for 8 days; type: organism-based; details: in vivo, 192 h, dose 400-2000 mg/kg, time 8 day
[21] = MRT (0 to t) in male Sprague-Dawley rat at 10 mg/kg, iv administered as single dose and measured upto 24 hrs by LC-MS/MS analysis; type: ADME, organism-based; details: in vivo
[22] = Acute toxicity in ICR mouse assessed as liver damage at 400 to 2000 mg/kg, po administered as single dose via oral gavage and measured on day 9; type: organism-based; details: in vivo, 216 h, dose 400-2000 mg/kg, time 9 day
[23] = AUC (0 to infinity) in male Sprague-Dawley rat at 10 mg/kg, iv administered as single dose and measured upto 24 hrs by LC-MS/MS analysis; type: ADME, organism-based; details: in vivo
[24] = MRT (0 to infinity) in male Sprague-Dawley rat at 10 mg/kg, iv administered as single dose and measured upto 24 hrs by LC-MS/MS analysis; type: ADME, organism-based; details: in vivo
[25] = Acute toxicity in male ICR mouse assessed as effect on body weight at 400 to 2000 mg/kg, po administered as single dose via oral gavage and measured for 8 days; type: organism-based; details: in vivo, 192 h, dose 400-2000 mg/kg, time 8 day
[26] = Acute toxicity in female ICR mouse assessed as effect on body weight at 400 to 2000 mg/kg, po administered as single dose via oral gavage and measured for 8 days; type: organism-based; details: in vivo, 192 h, dose 400-2000 mg/kg, time 8 day
[27] = target: Voltage-gated inwardly rectifying potassium channel KCNH2 (Homo sapiens, UniProt Q12809); assay: Inhibition of hERG expressed in CHO cells at -80 mV holding potential by manual patch clamp method; type: toxicity, cell-based
Voltage-gated inwardly rectifying potassium channel KCNH2, sequence (Q12809 whole entry): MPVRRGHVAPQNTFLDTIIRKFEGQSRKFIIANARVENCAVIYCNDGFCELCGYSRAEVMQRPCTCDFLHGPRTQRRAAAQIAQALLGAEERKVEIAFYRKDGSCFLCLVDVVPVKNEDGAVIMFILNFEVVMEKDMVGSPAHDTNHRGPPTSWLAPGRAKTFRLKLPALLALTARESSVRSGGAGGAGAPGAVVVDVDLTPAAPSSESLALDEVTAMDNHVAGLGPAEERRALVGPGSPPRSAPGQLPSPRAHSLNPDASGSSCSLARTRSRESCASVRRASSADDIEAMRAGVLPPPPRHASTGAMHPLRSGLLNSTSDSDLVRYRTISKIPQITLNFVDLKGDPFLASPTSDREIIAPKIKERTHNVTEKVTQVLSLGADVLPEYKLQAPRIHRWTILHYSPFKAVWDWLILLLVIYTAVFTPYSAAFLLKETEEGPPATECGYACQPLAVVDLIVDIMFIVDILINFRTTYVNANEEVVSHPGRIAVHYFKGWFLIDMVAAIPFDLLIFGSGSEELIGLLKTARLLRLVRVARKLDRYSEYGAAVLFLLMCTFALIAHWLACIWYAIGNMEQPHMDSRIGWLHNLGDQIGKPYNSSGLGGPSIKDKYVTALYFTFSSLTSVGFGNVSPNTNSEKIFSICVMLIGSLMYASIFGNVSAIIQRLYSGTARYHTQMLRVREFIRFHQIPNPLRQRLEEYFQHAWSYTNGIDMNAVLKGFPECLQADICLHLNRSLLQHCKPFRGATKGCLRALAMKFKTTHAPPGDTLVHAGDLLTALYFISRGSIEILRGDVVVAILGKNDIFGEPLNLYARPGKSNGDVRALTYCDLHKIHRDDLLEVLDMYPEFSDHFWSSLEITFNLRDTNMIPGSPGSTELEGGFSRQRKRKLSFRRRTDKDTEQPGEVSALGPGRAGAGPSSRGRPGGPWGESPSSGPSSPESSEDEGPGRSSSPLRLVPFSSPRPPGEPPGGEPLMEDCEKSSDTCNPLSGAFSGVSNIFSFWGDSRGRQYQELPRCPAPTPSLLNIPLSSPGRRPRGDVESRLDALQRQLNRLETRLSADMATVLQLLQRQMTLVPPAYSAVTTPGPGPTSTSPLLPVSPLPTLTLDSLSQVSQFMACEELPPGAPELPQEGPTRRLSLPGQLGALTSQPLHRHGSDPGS

[28] = Acute toxicity in ICR mouse assessed as lung damage at 400 to 2000 mg/kg, po administered as single dose via oral gavage and measured on day 9; type: organism-based; details: in vivo, 216 h, dose 400-2000 mg/kg, time 9 day
[29] = Acute toxicity in ICR mouse assessed as heart damage at 400 to 2000 mg/kg, po administered as single dose via oral gavage and measured on day 9; type: organism-based; details: in vivo, 216 h, dose 400-2000 mg/kg, time 9 day
[30] = MRT (0 to t) in male Sprague-Dawley rat at 20 mg/kg, po administered as single dose and measured upto 24 hrs by LC-MS/MS analysis; type: ADME, organism-based; details: in vivo
[31] = Initial drug concentration in male Sprague-Dawley rat at 10 mg/kg, iv administered as single dose and measured upto 24 hrs by LC-MS/MS analysis; type: ADME, organism-based; details: in vivo
[32] = AUC (0 to t) in male Sprague-Dawley rat at 20 mg/kg, po administered as single dose and measured upto 24 hrs by LC-MS/MS analysis; type: ADME, organism-based; details: in vivo
[33] = Tmax in male Sprague-Dawley rat at 20 mg/kg, po administered as single dose and measured upto 24 hrs by LC-MS/MS analysis; type: ADME, organism-based; details: in vivo
[34] = test system: Staphylococcus aureus; assay: Antibacterial activity against methicillin resistant Staphylococcus aureus ATCC 33591 measured after 15 passages; type: functional
[35] = AUC (0 to t) in male Sprague-Dawley rat at 10 mg/kg, iv administered as single dose and measured upto 24 hrs by LC-MS/MS analysis; type: ADME, organism-based; details: in vivo
[36] = Acute toxicity in ICR mouse assessed as animal death at 400 to 2000 mg/kg, po administered as single dose via oral gavage and measured for 8 days; type: organism-based; details: in vivo, 192 h, dose 400-2000 mg/kg, time 8 day
[37] = AUC (0 to infinity) in male Sprague-Dawley rat at 20 mg/kg, po administered as single dose and measured upto 24 hrs by LC-MS/MS analysis; type: ADME, organism-based; details: in vivo
[38] = Half life in male Sprague-Dawley rat at 20 mg/kg, po administered as single dose and measured upto 24 hrs by LC-MS/MS analysis; type: ADME, organism-based; details: in vivo
[39] = Acute toxicity in ICR mouse assessed as brain damage at 400 to 2000 mg/kg, po administered as single dose via oral gavage and measured on day 9; type: organism-based; details: in vivo, 216 h, dose 400-2000 mg/kg, time 9 day
[40] = Oral bioavailability in male Sprague-Dawley rat at 20 mg/kg administered as single dose and measured upto 24 hrs by LC-MS/MS analysis; type: ADME, organism-based; details: in vivo
[41] = Acute toxicity in ICR mouse assessed as effect on food intake at 400 to 2000 mg/kg, po administered as single dose via oral gavage and measured for 8 days; type: organism-based; details: in vivo, 192 h, dose 400-2000 mg/kg, time 8 day
[42] = Acute toxicity in ICR mouse assessed as spleen damage at 400 to 2000 mg/kg, po administered as single dose via oral gavage and measured on day 9; type: organism-based; details: in vivo, 216 h, dose 400-2000 mg/kg, time 9 day
[43] = MRT (0 to infinity) in male Sprague-Dawley rat at 20 mg/kg, po administered as single dose and measured upto 24 hrs by LC-MS/MS analysis; type: ADME, organism-based; details: in vivo
[44] = Cmax in male Sprague-Dawley rat at 20 mg/kg, po administered as single dose and measured upto 24 hrs by LC-MS/MS analysis; type: ADME, organism-based; details: in vivo

Structure (SMILES): Cc1ccc(Cc2ccnc(Nc3ccc4c(=O)c(C(=O)O)cn(C5CC5)c4c3)n2)cc1C
- k el at 1 µM [1]: 0.000233 s⁻¹
- half-life at 1 µM [2]: 0.987 h
- half-life at 1 µM [3]: 0.823 h
- k el at 1 µM [4]: 0.0002 s⁻¹
- Activity [5]: Toxic
- microsomal CLint at 1 µM [6]: 28.2 µL/min/mg
- microsomal CLint at 1 µM [7]: 23.4 µL/min/mg
- MIC [8]: > 64 µg/mL
- CLint scaled at 1 µM [9]: 42.2 mL/min/kg
- CLint scaled at 1 µM [10]: 26.6 mL/min/kg
- remaining at 1 h, 1 µM [11]: 41.1%
- remaining at 1 h, 1 µM [12]: 49.6%
- Activity [13]: Toxic
- MIC [14]: 0.78 µg/mL (≈ 1.77 µM)
- MIC [15]: 0.5 µg/mL (≈ 1.14 µM)
- MIC [16]: 0.78 µg/mL (≈ 1.77 µM)

Structure (SMILES): O=C(O)c1cn(C2CC2)c2cc(Nc3nccc(Cc4ccc(F)cc4F)n3)ccc2c1=O
- k el at 1 µM [1]: 0.00025 s⁻¹
- Activity [17]: Non-Toxic
- half-life [18]: 4.23 h
- clearance [19]: 18.5 mL/min/kg
- Activity [20]: Non-Toxic
- MRT last at 24 h [21]: 1.01 h
- Activity [22]: Non-Toxic
- AUC(0-inf) [23]: 9100 ng·h/mL
- half-life at 1 µM [2]: 0.683 h
- half-life at 1 µM [3]: 0.75 h
- MRT inf [24]: 1.2 h
- Activity [25]: Non-Toxic
- Activity [26]: Non-Toxic
- k el at 1 µM [4]: 0.000283 s⁻¹
- IC50 [27]: > 40 µM
- Activity [5]: Non-Toxic
- Activity [28]: Non-Toxic
- Activity [29]: Non-Toxic
- MRT last at 24 h [30]: 3.51 h
- C0 at 24 h [31]: 11800 ng/mL
- microsomal CLint at 1 µM [6]: 30.8 µL/min/mg
- microsomal CLint at 1 µM [7]: 33.8 µL/min/mg
- MIC [8]: > 64 µg/mL
- AUC(0-t) at 24 h [32]: 162 ng·h/mL
- CLint scaled at 1 µM [9]: 60.9 mL/min/kg
- Tmax [33]: 2.67 h
- MIC [34]: 0.25 µg/mL (≈ 0.558 µM)
- AUC(0-t) at 24 h [35]: 9060 ng·h/mL
- Activity [36]: Non-Toxic
- AUC(0-inf) [37]: 171 ng·h/mL
- CLint scaled at 1 µM [10]: 29.1 mL/min/kg
- half-life [38]: 2.16 h
- remaining at 1 h, 1 µM [11]: 40.9%
- Activity [39]: Non-Toxic
- bioavailability [40]: 0.9%
- Activity [41]: Non-Toxic
- remaining at 1 h, 1 µM [12]: 35.7%
- Activity [13]: Non-Toxic
- Activity [42]: Non-Toxic
- MRT inf [43]: 4.2 h
- MIC [14]: 0.39 µg/mL (≈ 0.87 µM)
- Cmax [44]: 31 ng/mL
- MIC [15]: 0.25 µg/mL (≈ 0.558 µM)
- MIC [16]: 0.39 µg/mL (≈ 0.87 µM)
